Experiments:
[1] = segatella copri, 12 h, 2 µM
[2] = The drug is tested on Bifidobacterium ruminantium strain: fecal isolate for biotransformation. The drug concentrations were measured before and after a 12-h incubation by liquid-chromatography-coupled mass spectrometry (LC–MS); settings: 2 µM
[3] = The drug is tested on Eubacterium hallii strain: DSM3353 for biotransformation. The drug concentrations were measured before and after a 12-h incubation by liquid-chromatography-coupled mass spectrometry (LC–MS); settings: anaerobutyricum hallii, 2 µM
[4] = The drug is tested on Odoribacter splanchnicus strain: fecal isolate for biotransformation. The drug concentrations were measured before and after a 12-h incubation by liquid-chromatography-coupled mass spectrometry (LC–MS); settings: 2 µM
[5] = bacteroides eggerthii, 12 h, 2 µM
[6] = The drug is tested on Bacteroides pectinophilus strain: ATCC43243 for biotransformation. The drug concentrations were measured before and after a 12-h incubation by liquid-chromatography-coupled mass spectrometry (LC–MS); settings: 2 µM
[7] = The drug is tested on Bacteroides finegoldii strain: DSM17565 for biotransformation. The drug concentrations were measured before and after a 12-h incubation by liquid-chromatography-coupled mass spectrometry (LC–MS); settings: 2 µM
[8] = The drug is tested on Enterobacter cancerogenus strain: ATCC35316 for biotransformation. The drug concentrations were measured before and after a 12-h incubation by liquid-chromatography-coupled mass spectrometry (LC–MS); settings: 2 µM
[9] = The drug is tested on Blautia luti strain: DSM14534 for biotransformation. The drug concentrations were measured before and after a 12-h incubation by liquid-chromatography-coupled mass spectrometry (LC–MS); assay type: ADME; parameters: dose 2 uM, timepoint 0 vs 12 hours; settings: 2 µM
[10] = enterocloster bolteae, 12 h, 2 µM
[11] = bacteroides stercoris, 12 h, 2 µM
[12] = The drug is tested on Bacteroides ovatus strain: ATCC8483 for biotransformation. The drug concentrations were measured before and after a 12-h incubation by liquid-chromatography-coupled mass spectrometry (LC–MS); settings: 2 µM
[13] = The drug is tested on Eubacterium rectale strain: ATCC33656 for biotransformation. The drug concentrations were measured before and after a 12-h incubation by liquid-chromatography-coupled mass spectrometry (LC–MS); settings: agathobacter rectalis, 2 µM
[14] = The drug is tested on Providencia stuartii strain: ATCC25827 for biotransformation. The drug concentrations were measured before and after a 12-h incubation by liquid-chromatography-coupled mass spectrometry (LC–MS); settings: 2 µM
[15] = The drug is tested on Bacteroides vulgatus strain: ATCC8482 for biotransformation. The drug concentrations were measured before and after a 12-h incubation by liquid-chromatography-coupled mass spectrometry (LC–MS); settings: phocaeicola vulgatus, 2 µM
[16] = bacteroides thetaiotaomicron, 12 h, 2 µM
[17] = The drug is tested on Bacteroides sp. WH2 strain: WH2 for biotransformation. The drug concentrations were measured before and after a 12-h incubation by liquid-chromatography-coupled mass spectrometry (LC–MS); settings: bacteroides sp. wh2, 12 h, 2 µM
[18] = The drug is tested on Bacteroides dorei strain: DSM17855 for biotransformation. The drug concentrations were measured before and after a 12-h incubation by liquid-chromatography-coupled mass spectrometry (LC–MS); settings: phocaeicola dorei, 2 µM
[19] = The drug is tested on Ruminococcus torques strain: ATCC27756 for biotransformation. The drug concentrations were measured before and after a 12-h incubation by liquid-chromatography-coupled mass spectrometry (LC–MS); assay type: ADME; parameters: dose 2 uM, timepoint 0 vs 12 hours; settings: 2 µM

SMILES | Bacterial Biotransformation [1] | Bacterial Biotransformation [2] | Bacterial Biotransformation [3] | Bacterial Biotransformation [4] | Bacterial Biotransformation [5] | Bacterial Biotransformation [6] | Bacterial Biotransformation [7] | Bacterial Biotransformation [8] | Bacterial Biotransformation [9] | Bacterial Biotransformation [10] | Bacterial Biotransformation [11] | Bacterial Biotransformation [12] | Bacterial Biotransformation [13] | Bacterial Biotransformation [14] | Bacterial Biotransformation [15] | Bacterial Biotransformation [16] | Bacterial Biotransformation [17] | Bacterial Biotransformation [18] | Bacterial Biotransformation [19]
O=C1C(CC[S+]([O-])c2ccccc2)C(=O)N(c2ccccc2)N1c1ccccc1 (stereo unspecified) [SULFINPYRAZONE] | Compound NOT metabolized | Compound NOT metabolized | Compound NOT metabolized | Compound metabolized | Compound NOT metabolized | Compound NOT metabolized | Compound NOT metabolized | Compound metabolized | Compound NOT metabolized | Compound NOT metabolized | Compound NOT metabolized | Compound NOT metabolized | Compound NOT metabolized | Compound NOT metabolized | Compound NOT metabolized | Compound NOT metabolized |  |  | 
Nc1nc2ccc(OC(F)(F)F)cc2s1 [RILUZOLE] | Compound NOT metabolized | Compound metabolized | Compound NOT metabolized | Compound NOT metabolized | Compound metabolized | Compound NOT metabolized | Compound NOT metabolized | Compound NOT metabolized |  | Compound NOT metabolized | Compound metabolized | Compound NOT metabolized | Compound NOT metabolized | Compound NOT metabolized | Compound NOT metabolized | Compound metabolized | Compound NOT metabolized | Compound metabolized | 
CCCCc1nc(Cl)c(CO)n1Cc1ccc(-c2ccccc2-c2nn[nH]n2)cc1 [LOSARTAN] | Compound NOT metabolized | Compound metabolized | Compound NOT metabolized | Compound metabolized |  | Compound NOT metabolized | Compound metabolized | Compound NOT metabolized | Compound NOT metabolized | Compound NOT metabolized |  | Compound NOT metabolized | Compound NOT metabolized | Compound NOT metabolized | Compound metabolized |  | Compound NOT metabolized | Compound metabolized | Compound NOT metabolized
O=c1n(CCCN2CCN(c3cccc(Cl)c3)CC2)nc2ccccn12 [TRAZODONE] | Compound NOT metabolized | Compound NOT metabolized | Compound NOT metabolized |  | Compound NOT metabolized | Compound NOT metabolized | Compound NOT metabolized | Compound NOT metabolized | Compound NOT metabolized | Compound NOT metabolized | Compound NOT metabolized | Compound NOT metabolized | Compound NOT metabolized | Compound NOT metabolized | Compound NOT metabolized | Compound NOT metabolized | Compound NOT metabolized | Compound NOT metabolized | Compound NOT metabolized
CC[C@@]1(O)C(=O)OCc2c1cc1n(c2=O)Cc2cc3c(CN(C)C)c(O)ccc3nc2-1 [TOPOTECAN] | Compound NOT metabolized | Compound NOT metabolized | Compound NOT metabolized | Compound NOT metabolized |  |  | Compound NOT metabolized | Compound NOT metabolized | Compound NOT metabolized | Compound NOT metabolized | Compound NOT metabolized | Compound NOT metabolized | Compound NOT metabolized |  | Compound NOT metabolized | Compound NOT metabolized | Compound NOT metabolized | Compound NOT metabolized | Compound NOT metabolized
CC(N)C12CC3CC(CC(C3)C1)C2 (stereo unspecified) [RIMANTADINE] | Compound NOT metabolized | Compound NOT metabolized | Compound NOT metabolized | Compound NOT metabolized | Compound NOT metabolized | Compound NOT metabolized | Compound NOT metabolized | Compound NOT metabolized | Compound NOT metabolized | Compound NOT metabolized | Compound NOT metabolized | Compound NOT metabolized | Compound NOT metabolized | Compound NOT metabolized |  | Compound NOT metabolized | Compound NOT metabolized |  | Compound NOT metabolized
OCCOCCN1CCN(C2=Nc3ccccc3Sc3ccccc32)CC1 [QUETIAPINE] | Compound NOT metabolized | Compound NOT metabolized | Compound NOT metabolized | Compound NOT metabolized | Compound NOT metabolized | Compound NOT metabolized | Compound NOT metabolized | Compound NOT metabolized | Compound NOT metabolized | Compound NOT metabolized | Compound NOT metabolized | Compound NOT metabolized | Compound NOT metabolized |  | Compound NOT metabolized |  | Compound NOT metabolized | Compound NOT metabolized | Compound NOT metabolized
C[C@@H](c1ncncc1F)[C@](O)(Cn1cncn1)c1ccc(F)cc1F [VORICONAZOLE] | Compound NOT metabolized | Compound NOT metabolized | Compound NOT metabolized | Compound metabolized | Compound NOT metabolized | Compound NOT metabolized | Compound NOT metabolized | Compound NOT metabolized | Compound NOT metabolized | Compound NOT metabolized |  | Compound NOT metabolized | Compound NOT metabolized | Compound NOT metabolized | Compound metabolized |  | Compound NOT metabolized | Compound metabolized | Compound NOT metabolized
COc1cc2nc(N3CCN(C(=O)c4ccco4)CC3)nc(N)c2cc1OC [PRAZOSIN] | Compound NOT metabolized | Compound NOT metabolized | Compound NOT metabolized | Compound NOT metabolized | Compound NOT metabolized | Compound NOT metabolized | Compound NOT metabolized | Compound NOT metabolized | Compound NOT metabolized | Compound NOT metabolized | Compound NOT metabolized | Compound NOT metabolized | Compound NOT metabolized | Compound NOT metabolized |  | Compound NOT metabolized | Compound NOT metabolized |  | Compound NOT metabolized

From ChEMBL document CHEMBL5303573, “Mapping human microbiome drug metabolism by gut bacteria and their genes” (Nature, 2019)
